Results on twelve compounds are retold here after patent publication US12331052B2, “Organic compounds” (INTRA-CELLULAR THERAPIES, INC., priority 2018, dated 2025).

Values joined by “and” are separate entries in the source; they are usually repeats but may differ in a detail not shown here. Equal entries are not always repeated. Where two headings read alike, the source gives them in different places.

One series addresses D1 (Homo sapiens, UniProt P21728). Kind of series: Receptor binding, D1. As to conditions: @ 100 nM; read-out: maximum inhibition.
Another series deals with 5-HT2A (Homo sapiens, UniProt P28223). Kind of series: biochemical. The class given is binding. Conditions: read-out: maximum inhibition.
Another series deals with SERT (Homo sapiens, UniProt P31645). Put plainly: biochemical. The class given is binding. As to conditions: read-out: maximum inhibition.
For the next series, the target named is D2 (Homo sapiens, UniProt P14416). Put plainly: Receptor binding, D2. Conditions: @ 100 nM; read-out: maximum inhibition.
Series [1] has as its system tyrosine hydroxylase phosphorylation at Ser40. Put plainly: CNS phosphoprotein profile, nucleus accumbens: TH. The class given is in vivo, mice. As to conditions: for increase in TH phosphorylation: mice nucleus accumbens, haloperidol 2 mg/kg, relative to vehicle-treated control. The method, then: (§1) A comprehensive molecular phosphorylation study is also carried out to examine the central nervous system (CNS) profile of the compound of Example 1. The extent of protein phosphorylation for selected key central nervous system proteins is measured in mice nucleus accumbens.
(§2) Mice were killed 30 minutes to 2 hours post-injection by focused microwave cranial irradiation, which preserves brain phosphoprotein as it exists at the time of death. Nucleus accumbens was then dissected from each mouse brain, sliced and frozen in liquid nitrogen. Samples were further prepared for phosphoprotein analysis via SDS-PAGE electrophoresis followed by phosphoprotein-specific immunoblotting, as described in Zhu H, et al., Brain Res. 2010 Jun. 25; 1342:11-23. Phosphorylation at each site was quantified, normalized to total levels of the protein (non-phosphorylated), and expressed as percent of the level of phosphorylation in vehicle-treated control mice.

The subject of another series is male C57BL/6J mice. As to conditions: mouse, in vivo.
The subject of series [2] is rats. Conditions: for Motility Ratio: 30 minutes prior to charcoal bolus.
The conditions of series [3]: male, Sprague-Dawley, rat, in vivo, sc, 0.3 mg/kg.
A further series concerns C57 mice. Conditions: mouse, in vivo.
Series [4] has as its system rats. Kind of series: Pulmonary function in rats. The class given is in vivo. As to conditions: for RR: 60 minutes.
The next series concerns male Sprague-Dawley rats. Put plainly: Rat tolerance/dependence study (28 day).
For series [5] the following is noted: rat, in vivo.
In a further series the test system is mice. Kind of series: Mouse marble-burying study (OCD model). The class given is in vivo. Conditions: 0.3 mg/kg orally 30 minutes prior, of 15 marbles. The text has this:
The marble burying test is used to measure repetitive and anxiety-related behavior in rodents. It is based on the observation that rats and mice will bury either harmful or harmless objects in their bedding, and it has been used as an animal model to measure the effect of pharmacological interventions in treatment of repetitive behavior disorders, such as OCD.
MPEP is a selective mGluR5 glutamate receptor antagonist. […] Mice in groups (1) are orally administered the vehicle, and mice in group (4) are given an intraperitoneal injection of MPEP just prior to the start of the test.
The test is conducted in rectangular cages with 4-5 cm of wood chip bedding in a room with the window shades lowered and the door closed to minimize distractions. Fifteen clean marbles are evenly spaced on top of the bedding in three rows of five marbles. One mouse is placed in each cage. The mouse in the cage is left undisturbed for 30 minutes. At the end of the test, the mouse is removed and the number of marbles buried to at least ⅔ of their depth is counted.

In series [6] the test system is NR2B phosphorylation at Tyr1472. Put plainly: CNS phosphoprotein profile, nucleus accumbens: NR2B. The class given is in vivo, mice. As to conditions: 3 mg/kg; at 30-60 minutes. As for the experimental part: as §1, §2

Chain of D2 (P14416 1-414 isoform P14416-2): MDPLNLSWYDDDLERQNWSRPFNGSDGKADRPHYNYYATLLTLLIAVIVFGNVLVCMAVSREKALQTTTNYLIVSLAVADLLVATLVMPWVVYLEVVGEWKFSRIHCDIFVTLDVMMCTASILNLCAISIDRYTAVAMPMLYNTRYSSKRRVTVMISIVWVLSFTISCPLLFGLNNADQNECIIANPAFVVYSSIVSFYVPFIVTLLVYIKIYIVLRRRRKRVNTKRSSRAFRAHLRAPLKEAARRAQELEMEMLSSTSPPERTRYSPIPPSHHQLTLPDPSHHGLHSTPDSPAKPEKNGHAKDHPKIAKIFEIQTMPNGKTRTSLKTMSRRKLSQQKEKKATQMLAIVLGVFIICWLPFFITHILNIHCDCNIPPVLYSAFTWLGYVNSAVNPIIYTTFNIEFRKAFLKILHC
Chain of 5-HT2A (P28223 whole entry): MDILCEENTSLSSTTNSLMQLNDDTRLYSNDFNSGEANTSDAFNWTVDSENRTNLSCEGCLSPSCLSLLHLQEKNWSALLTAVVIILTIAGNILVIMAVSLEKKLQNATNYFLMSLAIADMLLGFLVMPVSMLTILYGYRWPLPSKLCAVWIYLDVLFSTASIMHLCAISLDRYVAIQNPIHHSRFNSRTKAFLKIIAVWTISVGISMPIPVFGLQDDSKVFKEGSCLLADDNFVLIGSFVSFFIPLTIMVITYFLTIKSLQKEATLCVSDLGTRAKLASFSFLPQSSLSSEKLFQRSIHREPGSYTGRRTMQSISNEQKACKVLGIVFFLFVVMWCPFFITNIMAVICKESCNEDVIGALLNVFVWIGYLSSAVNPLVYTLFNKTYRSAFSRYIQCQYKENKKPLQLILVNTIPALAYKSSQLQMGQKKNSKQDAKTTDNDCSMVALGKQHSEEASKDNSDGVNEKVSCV
Chain of SERT (P31645 whole entry, species assumed): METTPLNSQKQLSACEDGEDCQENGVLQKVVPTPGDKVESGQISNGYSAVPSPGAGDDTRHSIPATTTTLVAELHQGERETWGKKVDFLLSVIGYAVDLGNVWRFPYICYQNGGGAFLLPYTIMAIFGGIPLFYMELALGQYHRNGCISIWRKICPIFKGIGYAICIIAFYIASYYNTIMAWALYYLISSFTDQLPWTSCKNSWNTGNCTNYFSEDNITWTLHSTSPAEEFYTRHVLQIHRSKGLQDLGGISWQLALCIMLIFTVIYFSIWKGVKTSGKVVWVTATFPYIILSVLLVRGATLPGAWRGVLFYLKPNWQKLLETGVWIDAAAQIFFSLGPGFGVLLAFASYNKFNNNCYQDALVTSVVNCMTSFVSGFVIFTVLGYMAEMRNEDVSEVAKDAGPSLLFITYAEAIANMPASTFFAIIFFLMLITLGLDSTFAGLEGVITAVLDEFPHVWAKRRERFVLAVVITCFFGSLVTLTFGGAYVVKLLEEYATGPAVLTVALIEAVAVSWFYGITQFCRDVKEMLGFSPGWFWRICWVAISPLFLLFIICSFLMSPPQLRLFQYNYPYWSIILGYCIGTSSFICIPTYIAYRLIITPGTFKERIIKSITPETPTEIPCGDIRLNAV
Chain of D1 (P21728 whole entry): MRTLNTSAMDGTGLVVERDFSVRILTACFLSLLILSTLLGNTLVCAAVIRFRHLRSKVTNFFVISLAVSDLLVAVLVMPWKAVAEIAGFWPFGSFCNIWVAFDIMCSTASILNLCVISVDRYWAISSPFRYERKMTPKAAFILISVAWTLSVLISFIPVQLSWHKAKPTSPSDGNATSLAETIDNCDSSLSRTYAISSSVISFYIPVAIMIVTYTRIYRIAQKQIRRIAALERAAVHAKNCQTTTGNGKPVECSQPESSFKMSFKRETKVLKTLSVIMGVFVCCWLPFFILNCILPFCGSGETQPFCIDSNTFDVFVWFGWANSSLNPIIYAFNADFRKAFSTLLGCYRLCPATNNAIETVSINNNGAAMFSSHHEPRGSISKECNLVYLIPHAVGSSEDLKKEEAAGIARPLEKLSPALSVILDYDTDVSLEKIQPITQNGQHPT

What is called inhibition is the drop in the measured response relative to a control, in per cent. For `O=C1CN2c3c(cccc3[C@@H]3CN(CCCOc4ccccc4F)CC[C@@H]32)N1` [Example 21, (6bR,10aS)-8-(3-(2-fluorophenoxy)propyl)-6b,7,8,9,10,10a-hexahydro-1H-pyrido[3′,4′:4,5]pyrrolo[1,2,3-de]quinoxalin-2(3H)-one], the inhibition at 0.1 µM at D1 amounted to 18%; on 5-HT2A it was 88%; at D2, 28%. The inhibition at 0.2 µM on SERT turned out to be 5%.
On to `Cc1nc2n(c(=O)c1CCN1CCC(c3noc4cc(F)ccc34)CC1)CCCC2` [risperidone], for which the “increase in TH phosphorylation” value in [1] is “greater than 500%”.
As to `O=C1CN2c3c(cccc3[C@@H]3CN(CCCOc4cccc(F)c4)CC[C@@H]32)N1` [Example 20, (6bR,10aS)-8-(3-(3-fluorophenoxy)propyl)-6b,7,8,9,10,10a-hexahydro-1H-pyrido[3′,4′:4,5]pyrrolo[1,2,3-de]quinoxalin-2(3H)-one], the values for the inhibition at 0.1 µM at D1, on 5-HT2A and at D2 were 32%, 79% and 14%, respectively. Also, the inhibition at 0.2 µM on SERT was found to be 8%.
The corresponding values for `Cc1ccc(OCCCN2CC[C@H]3[C@@H](C2)c2cccc4c2N3CC(=O)N4)cc1` [Example 25, (6bR,10aS)-8-(3-(p-tolyloxy)propyl)-6b,7,8,9,10,10a-hexahydro-1H-pyrido-[3′,4′:4,5]pyrrolo[1,2,3-de]quinoxalin-2(3H)-one] are 14%, 62%, 21% and 10%.
Take `O=C1CN2c3c(cccc3[C@@H]3CN(CCCOc4ccc(I)cc4)CC[C@@H]32)N1` [Example 23, (6bR,10aS)-8-(3-(4-iodophenoxy)propyl)-6b,7,8,9,10,10a-hexahydro-1H-pyrido[3′,4′:4,5]pyrrolo[1,2,3-de]quinoxalin-2(3H)-one]: the inhibition at 0.1 µM at D1 was found to be 3%; on 5-HT2A it was 81%; at D2, 14%. Moreover, the inhibition at 0.2 µM on SERT came to 48%.
The corresponding values for `O=C1CN2c3c(cccc3[C@@H]3CN(CCCOc4ccc(Br)cc4)CC[C@@H]32)N1` [Example 24, (6bR,10aS)-8-(3-(4-bromophenoxy)propyl)-6b,7,8,9,10,10a-hexahydro-1H-pyrido[3′,4′:4,5]pyrrolo[1,2,3-de]quinoxalin-2(3H)-one] are 3%, 72%, 8% and 44%.
Turning to `C=CCN1CC[C@]23c4c5ccc(O)c4O[C@H]2C(=O)CC[C@@]3(O)[C@H]1C5` [Naloxone, naloxone], in the series with male C57BL/6J mice, the “Body Weight Loss” value amounted to 0.5%, the Jumps is 0, the “Paw Tremors” value was determined as 0.87 and the “Total Number of Signs” value was found to be 2.2.
On to `O=C(CCCN1CCC(O)(c2ccc(Cl)cc2)CC1)c1ccc(F)cc1` [haloperidol], for which the “increase in TH phosphorylation” value in series [1] was “greater than 400%”.
As to `O=C1CN2c3c(cccc3[C@@H]3CN(CCCc4n[nH]c5cc(F)ccc45)CC[C@@H]32)N1` [Example 2, (6bR,10aS)-8-(3-(6-fluoro-1H-indazol-3-yl)propyl)-6b,7,8,9,10,10a-hexahydro-1H-pyrido[3′,4′:4,5]pyrrolo[1,2,3-de]quinoxalin-2(3H)-one], the “Motility Ratio” value is 0.50 with rats [2] (0.3 mg/kg SC), 0.55 in the series on rats [2] (1 mg/kg SC) and 0.50 in the series with rats [2] (3 mg/kg SC).
Regarding `CC(C)N1C(=O)CN2c3c(cccc31)[C@@H]1CN(CCCOc3ccc(F)cc3)CC[C@@H]12` [Example 22, (6bR,10aS)-8-(3-(4-fluorophenoxy)propyl)-3-isopropyl-6b,7,8,9,10,10a-hexa-hydro-1H-pyrido[3′,4′:4,5]pyrrolo[1,2,3-de]quinoxalin-2(3H)-one], the inhibition at 0.1 µM on D1 is 70%; at 5-HT2A, 81%; on D2 it was 39%. Moreover, the inhibition at 0.2 µM on SERT was 11%.
Take `O=C1CN2c3c(cccc3[C@@H]3CN(CCCOc4ccc(F)cc4)CC[C@@H]32)N1` [Example 1, (6bR,10aS)-8-(3-(4-fluorophenoxy)propyl)-6b,7,8,9,10,10a-hexahydro-1H-pyrido[3′,4′:4,5]pyrrolo[1,2,3-de]quinoxalin-2(3H)-one]: in series [3], the peak plasma concentrations was 15 to 38 ng/mL. Further, the “Mean Behavior Rating (0-4)” value in the series on C57 mice (po, 3 mg/kg) is 0.9 and 0.8 and 1.5; with C57 mice (sc, 1 mg/kg), 1.0 and 1.9 and 1.1. The RR in the series on rats [4] (0.3 mg/kg SC) came to 181 breaths/min; with rats [4] (1.0 mg/kg SC), 203 breaths/min; in the series with rats [4] (3.0 mg/kg SC), 190 breaths/min. In addition, the “respiratory rate, tidal volume and minute volume vs vehicle” value in the series on rats [4] (0.3, 1.0 and 3.0 mg/kg SC, 0, 15, 60, 120, 240 minutes) was “no significant differences”. The “physical dependence upon cessation of dosing” value in the series with male Sprague-Dawley rats (0.3 and 3 mg/kg) is given as “not to produce a syndrome of physical dependence”. Also, the “tolerance during subcutaneous dosing for 28 days” value in the series on male Sprague-Dawley rats (0.3 and 3 mg/kg four times) is listed as “does not produce tolerance”. Moreover, the “effect on animal body weight, food and water intake or body temperature” value with male Sprague-Dawley rats (0.3 and 3 mg/kg s.c. four times per day, on-dose or withdrawal phase) is reported as “no significant effect”. For the same compound, the “main behavioral and physical signs” value in the series with male Sprague-Dawley rats (higher dose (3 mg/kg)) was “hunched posture, subdued behavior, Straub tail, tail rattle and piloerection”. In the series with male Sprague-Dawley rats (repeated administration at 0.3 mg/kg), the “predominant behavioral and physical effects, dosing phase” value was “hunched posture, Straub tail and piloerection”. The Bioavailability in series [5] (iv, 1 mg/kg) amounted to 100%. Also, the t-1/2 was determined as 3.1 h in series [5] (po, 10 mg/kg) and 9.5 h in [5] (sc, 3 mg/kg). In the series on rats [2] (at a dose up to 3 mg/kg), the “effect on gastrointestinal motility” value is given as “no significant effect”. Further, in the series on mice, the “Marbles Buried” value is 9.3. For the same compound, the “effect on tyrosine hydroxylase phosphorylation at Ser40” value in series [1] (3 mg/kg, at 30 minutes or 60 minutes) is on record as “no significant effect”. In addition, the “effect on NR2B phosphorylation at Tyr1472” value in series [6] is given as “no significant effect”.
For the compound `CN1CC[C@]23c4c5ccc(O)c4O[C@H]2[C@@H](O)C=C[C@H]3[C@H]1C5` [Morphine, morphine, reference compound], the “reduction in gastric motility” value in the series with rats [2] (5 mg/kg SC) is roughly 50%.
